Assay results published in patent publication US20070128217A1 (priority 2003, published 2007).

Assays:
[1] = tested on: antibodies in sera from SARS patients (sera 1a, 1b, 2, 6, 37, 62, London, SARS-yellow, SARS-green); format: binding, human; set-up: Binding of serum 6 to linear peptides of protein X1 of SARS-CoV Urbani / Binding of serum 37 to linear peptides of protein X1 of SARS-CoV Urbani / Binding of serum 6 to looped/cyclic peptide (PEPSCAN-ELISA) / Binding of serum 37 to looped/cyclic peptide (PEPSCAN-ELISA) / Binding of serum 37 to looped/cyclic peptides of protein X1 of SARS-CoV Urbani / Binding of serum 6 to linear peptides of protein X2 / Binding of serum 37 to linear peptides of protein X2 / Binding of serum 37 to looped/cyclic peptides of protein X2 of SARS-CoV Urbani / Binding of serum 6 to linear peptides of protein M of SARS-CoV Urbani / Binding of serum 37 to linear peptides of protein M of SARS-CoV Urbani / Binding of serum 6 to looped/cyclic peptides of protein M of SARS-CoV Urbani / Binding of serum 37 to looped/cyclic peptides of protein M of SARS-CoV Urbani / Binding of serum 6 to linear peptides of protein X3 of SARS-CoV Urbani / Binding of serum 37 to linear peptides of protein X3 of SARS-CoV Urbani / Binding of serum 37 to looped/cyclic peptides of protein X3 of SARS-CoV Urbani / Binding of serum 6 to linear peptides of protein X4 of SARS-CoV Urbani / Binding of serum 37 to linear peptides of protein X4 of SARS-CoV Urbani / Binding of serum 37 to looped/cyclic peptides of protein X4 of SARS-CoV Urbani / Binding of serum 6 to linear peptides of protein X5 of SARS-CoV Urbani / Binding of serum 37 to linear peptides of protein X5 of SARS-CoV Urbani / Binding of serum 37 to looped/cyclic peptides of protein X5 of SARS-CoV Urbani / Binding of serum 6 to linear peptides of protein N of SARS-CoV Urbani / Binding of serum 37 to linear peptides of protein N of SARS-CoV Urbani / Binding of serum 6 to linear peptide (PEPSCAN-ELISA) / Binding of serum 1a to looped/cyclic peptides of protein N of SARS-CoV Urbani / Binding of serum 1b to looped/cyclic peptides of protein N of SARS-CoV Urbani / Binding of serum 2 to looped/cyclic peptides of protein N of SARS-CoV Urbani / Binding of serum 6 to looped/cyclic peptides of protein N of SARS-CoV Urbani / Binding of serum 37 to looped/cyclic peptides of protein N of SARS-CoV Urbani / Binding of serum 62 to looped/cyclic peptides of protein N of SARS-CoV Urbani / Binding of serum London to looped/cyclic peptides of protein N of SARS-CoV Urbani / Binding of serum SARS-green to looped/cyclic peptides of protein N of SARS-CoV Urbani: unit not given here
[2] = tested on: control sera (pooled serum of ten healthy LUMC hospital workers; commercial negative donor pooled serum from the Dutch bloodbank); format: binding, human; set-up: Binding of Control serum LUMC to linear peptides / Binding of Control serum Blood-bank to linear peptides / Binding of Control serum LUMC to looped peptides / Binding of Control Serum Blood-Bank to Looped peptides / Binding of Control serum LUMC to linear peptides of the protein M of SARS-CoV Urbani / Binding of Control serum Blood-bank to linear peptides of the protein M of SARS-CoV Urbani / Binding of Control serum LUMC to looped peptides of the protein M of SARS-CoV Urbani / Binding of Control Serum Blood-Bank to Looped peptides of the protein M of SARS-CoV Urbani: unit not given here
[3] = tested on: rabbit serum obtained by immunizing a rabbit with the SARS-CoV strain Frankfurt 1; format: binding; set-up: Binding of a rabbit serum to linear peptides / Binding of a rabbit serum to looped peptides / Rabbit serum linear peptides / Rabbit serum looped peptides / Binding of a rabbit serum to linear peptides of protein N of SARS-CoV Urbani (Rabbit serum linear peptides) / Binding of a rabbit serum to looped/cyclic peptides of protein N of SARS-CoV Urbani (Rabbit serum looped peptides): unit not given here

DIKDLPKEITVATSR
0.8: Binding of serum 6 to looped/cyclic peptides of protein M of SARS-CoV Urbani [1] | Binding of Control Serum Blood-Bank to Looped peptides of the protein M of SARS-CoV Urbani [2]
0.7: Binding of serum 1a to linear peptides of protein M of SARS-CoV Urbani [1] | Binding of serum 2 to looped/cyclic peptides of protein M of SARS-CoV Urbani [1] | Binding of serum 62 to looped/cyclic peptides of protein M of SARS-CoV Urbani [1] | Binding of serum SARS-yellow to looped/cyclic peptides of protein M of SARS-CoV Urbani [1]
0.9: Binding of serum 37 to looped/cyclic peptides of protein M of SARS-CoV Urbani [1] | Binding of Control serum LUMC to looped peptides of the protein M of SARS-CoV Urbani [2]
0.4: Binding of serum London to linear peptides of protein M of SARS-CoV Urbani [1] | Binding of serum SARS-green to looped/cyclic peptides of protein M of SARS-CoV Urbani [1]
0.5: Binding of serum 1b to linear peptides of protein M of SARS-CoV Urbani [1] | Binding of serum 2 to linear peptides of protein M of SARS-CoV Urbani [1] | Binding of serum 6 to linear peptides of protein M of SARS-CoV Urbani [1] | Binding of serum 62 to linear peptides of protein M of SARS-CoV Urbani [1] | Binding of serum SARS-green to linear peptides of protein M of SARS-CoV Urbani [1] | Binding of Control serum LUMC to linear peptides of the protein M of SARS-CoV Urbani [2]
0.6: Binding of serum 1a to looped/cyclic peptides of protein M of SARS-CoV Urbani [1] | Binding of serum 1b to looped/cyclic peptides of protein M of SARS-CoV Urbani [1] | Binding of serum 37 to linear peptides of protein M of SARS-CoV Urbani [1] | Binding of Control serum Blood-bank to linear peptides of the protein M of SARS-CoV Urbani [2]
0.2: Binding of serum SARS-yellow to linear peptides of protein M of SARS-CoV Urbani [1] | Rabbit serum linear peptides [3]
0.3: Binding of serum London to looped/cyclic peptides of protein M of SARS-CoV Urbani [1] | Rabbit serum looped peptides [3]

DLPKEITVATSRTLS
0.0: Binding of serum SARS-yellow to linear peptides of protein M of SARS-CoV Urbani [1]
0.3: Binding of serum London to linear peptides of protein M of SARS-CoV Urbani [1] | Binding of serum SARS-green to linear peptides of protein M of SARS-CoV Urbani [1] | Rabbit serum looped peptides [3]
0.1: Rabbit serum linear peptides [3]
0.5: Binding of serum 1a to looped/cyclic peptides of protein M of SARS-CoV Urbani [1] | Binding of serum 1b to looped/cyclic peptides of protein M of SARS-CoV Urbani [1] | Binding of serum 37 to linear peptides of protein M of SARS-CoV Urbani [1] | Binding of Control serum Blood-bank to linear peptides of the protein M of SARS-CoV Urbani [2]
0.4: Binding of serum London to looped/cyclic peptides of protein M of SARS-CoV Urbani [1] | Binding of serum SARS-green to looped/cyclic peptides of protein M of SARS-CoV Urbani [1]
0.8: Binding of serum 6 to looped/cyclic peptides of protein M of SARS-CoV Urbani [1]
0.7: Binding of serum 1a to linear peptides of protein M of SARS-CoV Urbani [1] | Binding of serum 2 to linear peptides of protein M of SARS-CoV Urbani [1] | Binding of serum 37 to looped/cyclic peptides of protein M of SARS-CoV Urbani [1] | Binding of serum 62 to linear peptides of protein M of SARS-CoV Urbani [1] | Binding of serum SARS-yellow to looped/cyclic peptides of protein M of SARS-CoV Urbani [1] | Binding of Control Serum Blood-Bank to Looped peptides of the protein M of SARS-CoV Urbani [2] | Binding of Control serum LUMC to looped peptides of the protein M of SARS-CoV Urbani [2]
0.2: Binding of serum 1b to linear peptides of protein M of SARS-CoV Urbani [1] | Binding of serum 6 to linear peptides of protein M of SARS-CoV Urbani [1] | Binding of Control serum LUMC to linear peptides of the protein M of SARS-CoV Urbani [2]
0.6: Binding of serum 2 to looped/cyclic peptides of protein M of SARS-CoV Urbani [1] | Binding of serum 62 to looped/cyclic peptides of protein M of SARS-CoV Urbani [1]

DTIVVTEGDGISTPK
0.2: Binding of serum 1b to looped/cyclic peptides of protein X1 of SARS-CoV Urbani [1] | Binding of serum 6 to looped/cyclic peptides of protein X1 of SARS-CoV Urbani [1] | Binding of serum London to linear peptides of protein X1 of SARS-CoV Urbani [1] | Binding of serum London to looped/cyclic peptides of protein X1 of SARS-CoV Urbani [1] | Binding of serum SARS-green to linear peptides of protein X1 of SARS-CoV Urbani [1]
0.3: Binding of serum 1a to looped/cyclic peptides of protein X1 of SARS-CoV Urbani [1] | Binding of serum 2 to linear peptides of protein X1 of SARS-CoV Urbani [1] | Binding of serum 37 to looped/cyclic peptides of protein X1 of SARS-CoV Urbani [1] | Binding of serum 62 to linear peptides of protein X1 of SARS-CoV Urbani [1] | Binding of serum 62 to looped/cyclic peptides of protein X1 of SARS-CoV Urbani [1] | Binding of Control serum LUMC to linear peptides [2] | Binding of Control serum LUMC to looped peptides [2]
0.1: Binding of serum 2 to looped/cyclic peptides of protein X1 of SARS-CoV Urbani [1] | Binding of serum SARS-green to looped/cyclic peptides of protein X1 of SARS-CoV Urbani [1] | Binding of serum SARS-yellow to linear peptides of protein X1 of SARS-CoV Urbani [1] | Binding of serum SARS-yellow to looped/cyclic peptides of protein X1 of SARS-CoV Urbani [1] | Binding of a rabbit serum to linear peptides [3]
0.5: Binding of serum 1a to linear peptides of protein X1 of SARS-CoV Urbani [1] | Binding of a rabbit serum to looped peptides [3]
0.4: Binding of serum 1b to linear peptides of protein X1 of SARS-CoV Urbani [1] | Binding of serum 6 to linear peptides of protein X1 of SARS-CoV Urbani [1] | Binding of serum 37 to linear peptides of protein X1 of SARS-CoV Urbani [1] | Binding of Control Serum Blood-Bank to Looped peptides [2] | Binding of Control serum Blood-bank to linear peptides [2]

DYVVVHGYFTEVYYQ
0.5: Binding of serum 1b to linear peptides of protein X1 of SARS-CoV Urbani [1] | Binding of serum 1b to looped/cyclic peptides of protein X1 of SARS-CoV Urbani [1] | Binding of serum 2 to looped/cyclic peptides of protein X1 of SARS-CoV Urbani [1] | Binding of serum SARS-yellow to looped/cyclic peptides of protein X1 of SARS-CoV Urbani [1] | Binding of Control Serum Blood-Bank to Looped peptides [2] | Binding of Control serum Blood-bank to linear peptides [2]
0.2: Binding of serum London to linear peptides of protein X1 of SARS-CoV Urbani [1] | Binding of serum London to looped/cyclic peptides of protein X1 of SARS-CoV Urbani [1]
0.3: Binding of serum 6 to looped/cyclic peptides of protein X1 of SARS-CoV Urbani [1] | Binding of serum SARS-green to linear peptides of protein X1 of SARS-CoV Urbani [1] | Binding of serum SARS-green to looped/cyclic peptides of protein X1 of SARS-CoV Urbani [1] | Binding of serum SARS-yellow to linear peptides of protein X1 of SARS-CoV Urbani [1]
0.4: Binding of serum 2 to linear peptides of protein X1 of SARS-CoV Urbani [1] | Binding of serum 6 to linear peptides of protein X1 of SARS-CoV Urbani [1] | Binding of serum 62 to linear peptides of protein X1 of SARS-CoV Urbani [1]
0.7: Binding of serum 37 to looped/cyclic peptides of protein X1 of SARS-CoV Urbani [1] | Binding of serum 62 to looped/cyclic peptides of protein X1 of SARS-CoV Urbani [1] | Binding of Control serum LUMC to linear peptides [2] | Binding of Control serum LUMC to looped peptides [2]
0.1: Binding of a rabbit serum to linear peptides [3]
0.6: Binding of serum 1a to linear peptides of protein X1 of SARS-CoV Urbani [1] | Binding of serum 1a to looped/cyclic peptides of protein X1 of SARS-CoV Urbani [1] | Binding of serum 37 to linear peptides of protein X1 of SARS-CoV Urbani [1] | Binding of a rabbit serum to looped peptides [3]
